Among the data in DBAASP are MIC values, retold here.

In brackets after ≈: the same amount, converted by molar mass. Several values for one entry are separate records, joined by “and”; a condition that tells them apart may be missing. Equal values may be shown once.

Among the test systems are Proteus vulgaris; Carnobacterium mobile; Fusarium oxysporum; Escherichia coli K91BK; Campylobacter jejuni; Campylobacter lari; Campylobacter coli; Acinetobacter baumannii.
What all share (experiment): ≥ marks a high value that may be exact or a test limit, other limits are often not marked, values filed in µg/mL are converted to µM
For test [1], the system named is Escherichia coli KCTC 1682.
The subject of test [2] is Pseudomonas aeruginosa KCTC 1637.
Test [3] deals with Bacillus megaterium KCTC 1096.
The subject of test [4] is Staphylococcus aureus KCTC 1621.
In test [5] the test system is Bacillus subtilis KCTC 1918.
The subject of test [6] is Escherichia coli NIHJ JC-2.
The subject of test [7] is Pseudomonas aeruginosa U-31.
In test [8] the test system is Bacillus subtilis PCI 219.
Test [9] concerns Staphylococcus aureus FDA 209P.
For test [10], the system named is Enterococcus faecalis WHO 14.
The subject of test [11] is Micrococcus luteus ATCC 4698.
Test [12] has as its system Bacillus subtilis ICTA-07.
Test [13] deals with Pseudomonas aeruginosa ATCC 27853.
For test [14], the system named is Yersinia enterocolitica ATCC 9610.
The test system of test [15] is Acinetobacter calcoaceticus ATCC 2305-5.
Test [16] has as its system Bacillus subtilis var. niger ATCC 9372.
Test [17] relates to Bacillus anthracis Sterne 34F2.
Test [18] concerns Bacillus subtilis ATCC 6633.
The subject of test [19] is Escherichia coli ATCC 33694.
Test [20] has as its system Staphylococcus aureus 4716.
Test [21] has as its system Salmonella typhimurium KCTC 1926.
Test [22] concerns Staphylococcus aureus 3551.
For test [23], the system named is Trichosporon beigelii KCTC 7707.
Test [24] concerns Pseudomonas aeruginosa 3552.
The test system of test [25] is Staphylococcus aureus 1870.
Test [26] concerns Candida albicans TIMM 1768.
For test [27], the system named is Streptococcus pyogenes KCTC 3096.
The subject of test [28] is Acinetobacter baumannii KCTC 2508.
For test [29], the system named is Staphylococcus epidermidis KCTC 3096.

With `CC[C@H](C)[C@H](NC(=O)[C@H](CCCCN)NC(=O)[C@H](CCCCN)NC(=O)[C@@H](N)Cc1c[nH]c2ccccc12)C(=O)N1CCC[C@H]1C(=O)N[C@@H](CCCCN)C(=O)N[C@@H](Cc1ccccc1)C(=O)N[C@@H](CC(C)C)C(=O)N[C@@H](Cc1cnc[nH]1)C(=O)N[C@@H](CC(C)C)C(=O)N[C@@H](CC(C)C)C(=O)N[C@@H](CCCCN)C(=O)N[C@@H](CCCCN)C(=O)N[C@@H](Cc1ccccc1)C(N)=O` [WKKIPKFLHLLKKF], the MIC came to 6.25 µM (≈ 11.4 µg/mL) in test [1]; 3.12 µM (≈ 5.7 µg/mL) in [2]; 12.5 µM (≈ 22.8 µg/mL) with Proteus vulgaris; 1.56 µM (≈ 2.85 µg/mL) in [3]; 3.12 µM (≈ 5.7 µg/mL) in test [4]; 0.78 µM (≈ 1.42 µg/mL) in test [5].

As for `CC(C)C[C@H](NC(=O)[C@H](CC(C)C)NC(=O)[C@H](CC(C)C)NC(=O)[C@H](CCCCN)NC(=O)[C@H](CC(C)C)NC(=O)[C@H](CC(C)C)NC(=O)[C@H](CCCCN)NC(=O)[C@H](CC(C)C)NC(=O)[C@H](Cc1c[nH]c2ccccc12)NC(=O)[C@H](CC(C)C)NC(=O)[C@H](CCCCN)NC(=O)[C@H](CC(C)C)NC(=O)[C@H](CC(C)C)NC(=O)[C@H](CC(C)C)NC(=O)[C@H](CCCCN)NC(=O)[C@H](CC(C)C)NC(=O)[C@H](CC(C)C)NC(=O)[C@@H](N)CCCCN)C(=O)O` [KLLKLLLKLWLKLLKLLL], the minimal inhibitory concentration (MIC) in [6], in test [7], in test [8] and in test [9] was not below 45.4 µM each time.

In the case of `CSCC[C@H](N)C(=O)N[C@@H](C)C(=O)N[C@@H](CO)C(=O)N[C@@H](CCCN=C(N)N)C(=O)N[C@@H](C)C(=O)N[C@@H](C)C(=O)NCC(=O)N[C@@H](CC(C)C)C(=O)N[C@@H](C)C(=O)N[C@@H](C)C(=O)N[C@@H](CCCN=C(N)N)C(=O)N[C@@H](CC(C)C)C(=O)N[C@@H](C)C(=O)N[C@@H](CCCN=C(N)N)C(=O)N[C@@H](CC(C)C)C(=O)N[C@@H](C)C(=O)N[C@@H](CC(C)C)C(=O)N[C@@H](CCCN=C(N)N)C(=O)N[C@@H](C)C(=O)N[C@@H](CC(C)C)C(=O)O` [MASRAAGLAARLARLALRAL], the MIC in the test with Carnobacterium mobile was found to be 0.05 µM (≈ 0.103 µg/mL); against Fusarium oxysporum, 1 µM (≈ 2.05 µg/mL).

As for `CSCC[C@@H]1NC(=O)[C@H](Cc2c[nH]c3ccccc23)NC(=O)[C@H](C)NC(=O)[C@H](Cc2ccc(O)cc2)NC(=O)[C@@H]2CSSC[C@@H]3NC(=O)[C@H](CO)NC(=O)[C@H](Cc4ccc(O)cc4)NC(=O)[C@H](CCCCN)NC(=O)[C@@H](NC(=O)CNC(=O)[C@H](CC(=O)O)NC(=O)[C@H](CC(N)=O)NC(=O)CNC(=O)[C@@H](NC(=O)[C@H](CC(C)C)NC(=O)[C@H](Cc4ccc(O)cc4)NC(=O)CNC(=O)[C@H](CC(=O)O)NC(=O)[C@@H](N)CCCCN)C(C)C)CSSC[C@@H](C(=O)NCC(=O)N[C@@H](CCCN=C(N)N)C(N)=O)NC(=O)[C@H](CCCN=C(N)N)NC(=O)[C@H](CC(N)=O)NC(=O)[C@H]([C@@H](C)O)NC(=O)[C@H](C)NC(=O)[C@H](CCCN=C(N)N)NC(=O)[C@H](CC(N)=O)NC(=O)[C@H](Cc4c[nH]c5ccccc45)NC(=O)[C@H]([C@@H](C)O)NC(=O)[C@H](CCCCN)NC(=O)[C@H](C(C)C)NC(=O)[C@H](Cc4c[nH]c5ccccc45)NC(=O)[C@H](CC(N)=O)NC(=O)[C@@H]4CCCN4C(=O)[C@H](CCSC)NC(=O)[C@H](CO)NC(=O)[C@H](Cc4ccc(O)cc4)NC(=O)[C@@H]4CSSC[C@H](NC(=O)[C@H](CCC(=O)O)NC(=O)[C@H](CC(N)=O)NC(=O)[C@H](C)NC(=O)[C@H](CSSC[C@H](NC(=O)[C@H](C)NC1=O)C(=O)N[C@@H](Cc1ccc(O)cc1)C(=O)N4)NC(=O)[C@H](Cc1ccc(O)cc1)NC(=O)[C@H]([C@@H](C)O)NC(=O)CNC(=O)[C@@H]1CCCN1C(=O)[C@H](CCCN=C(N)N)NC(=O)[C@H]([C@@H](C)O)NC(=O)[C@H](Cc1ccccc1)NC3=O)C(=O)N[C@@H](CO)C(=O)N[C@@H](CCCN=C(N)N)C(=O)N[C@@H](C(C)C)C(=O)N[C@@H](CCCCN)C(=O)NCC(=O)N[C@@H](CCCCN)C(=O)N[C@@H](CC(=O)O)C(=O)NCC(=O)N[C@@H](Cc1ccc(O)cc1)C(=O)N2` [KDGYLVGNDGCKYSCFTRPGTYCANECSRVKGKDGYCYAWMACYCYSMPNWVKTWNRATNRCGR], the MIC in test [10] is not below 65 µM; in test [11], 27 µM (≈ 199 µg/mL); in [12], 30 µM (≈ 221 µg/mL); in test [13], 54 µM (≈ 398 µg/mL); in test [14] it was not below 46 µM; in [15], 27 µM (≈ 199 µg/mL).

Turning to `CC(=O)N[C@@H](CCCCN)C(=O)N[C@@H](Cc1c[nH]c2ccccc12)C(=O)N[C@@H](CCCCN)C(=O)N[C@@H](CCCCN)C(=O)N[C@@H](CC(C)C)C(=O)N1CCC[C@H]1C(=O)N[C@@H](CCCCN)C(=O)N[C@@H](CCCCN)C(=O)N[C@@H](CC(C)C)C(=O)N[C@@H](CC(C)C)C(=O)N[C@@H](CCCCN)C(=O)N[C@@H](CC(C)C)C(=O)N[C@@H](CC(C)C)C(N)=O` [KWKKLPKKLLKLL], the results for the MIC (against Escherichia coli K91BK; in [16]; in [17]) were not below 100 µM, 8.84 µM (≈ 14.8 µg/mL) and not below 100 µM, respectively.

Regarding `CC[C@H](C)[C@H](NC(=O)CNC(=O)[C@@H](NC(=O)[C@H](CCCCN)NC(=O)[C@H](CCCCN)NC(=O)[C@H](Cc1ccccc1)NC(=O)[C@H](CC(C)C)NC(=O)[C@H](CCCCN)NC(=O)[C@H](Cc1c[nH]c2ccccc12)NC(=O)[C@@H](N)CCCCN)[C@@H](C)CC)C(=O)NCC(=O)N[C@@H](CCCCN)C(=O)N[C@@H](Cc1ccccc1)C(=O)N[C@@H](CC(C)C)C(=O)N[C@@H](Cc1cnc[nH]1)C(=O)N[C@@H](CO)C(=O)N[C@@H](C)C(=O)N[C@@H](CCCCN)C(=O)N[C@@H](CCCCN)C(=O)N[C@@H](Cc1ccccc1)C(N)=O` [KWKLFKKIGIGKFLHSAKKF], the MIC in test [1] is 3.12 µM (≈ 7.51 µg/mL); in test [2] it was 1.56 µM (≈ 3.75 µg/mL); in [18], 1.1 µM (≈ 2.65 µg/mL); against Campylobacter jejuni, 20.8 µM (≈ 50 µg/mL); in test [19] it was 6.25 µM (≈ 15 µg/mL); in test [20], 4 µM (≈ 9.62 µg/mL). The minimal inhibitory concentration (MIC) in test [21] was 0.78 µM (≈ 1.88 µg/mL); in [22], 1 µM (≈ 2.4 µg/mL); with Campylobacter lari, 20.8 µM (≈ 50 µg/mL); in [23], 6.25 µM (≈ 15 µg/mL); in test [24] it was 8 µM and 4 µM; against Campylobacter coli, 29.4 µM (≈ 70.7 µg/mL). Moreover, the MIC against Acinetobacter baumannii is 6.25 µM (≈ 15 µg/mL); in test [25], not below 64 µM; in [4], 3.12 µM (≈ 7.51 µg/mL); in test [5] it was 0.78 µM (≈ 1.88 µg/mL); in [26] it was 12.5 µM (≈ 30.1 µg/mL); in [27], 0.78 µM (≈ 1.88 µg/mL). The MIC in [28] was 12.5 µM (≈ 30.1 µg/mL); in [29], 2.21 µM (≈ 5.3 µg/mL).
